This is an account of results in US20260241012A1, “1,8-NAPHTHYRIDIN-2-ONE HETEROBIFUNCTIONAL BCL6 DEGRADERS” (Treeline Biosciences, Inc., priority 2022, published 2026).

The target of the test is T1, N-terminal HiBiT tagged BCL6 (Homo sapiens, UniProt P41182).
T1 construct: expressed in transfected cells; host or cells: HT1080 (ATCC CCL-121), stably transduced with lentivirus pLV-UBC-N-HiBiT-BCL6-PGK-puro
Put plainly: HiBiT based degradation assay. Conditions: HT1080 cells expressing N-terminal HiBiT tagged BCL6, 5 hours of incubation; for Ymin (5 hr): BCL6 degradation normalized with DMSO control; for DC50: four-parameter logistic model, read-out: EC50 (5 hr). It is filed as cell-based. The method, boiled down: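 Degradation measured by luminescence from the Nano-Glo HiBiT lytic reagent (15 min, room temperature), normalized to DMSO controls and fitted to a four-parameter curve.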

A value given as a limit tells only on which side of the number the result lay.

In the case of `CNC(=O)COc1cc2cc(Nc3nc(N4CCN(CC5CCN(c6cccc7c(C8CCC(=O)NC8=O)nn(C)c67)CC5)[C@H](CO)C4)ncc3Cl)cnc2n(C(C)C)c1=O` (stereo partly drawn) [Compound 146a, 2-((6-((5-chloro-2-((3S)-4-((1-(3-(2,6-dioxopiperidin-3-yl)-1-methyl-1H-indazol-7-yl)piperidin-4-yl)methyl)-3-(hydroxymethyl)piperazin-1-yl)pyrimidin-4-yl)amino)-1-isopropyl-2-oxo-1,2-dihydro-1,8-naphthyridin-3-yl)oxy)-N-methylacetamide], the “Ymin (5 hr)” value is “++++ (Ymin < 30%)” and the DC50 lay within 10 to 100 nM.
The corresponding values for `CNC(=O)COc1cc2cc(Nc3nc(N4CCN(CC5CCN(c6cccc7c(C8CCC(=O)NC8=O)nn(C)c67)CC5)[C@@H](CO)C4)ncc3Cl)cnc2n(C(C)C)c1=O` (stereo partly drawn) [Compound 146b, 2-((6-((5-chloro-2-((3R)-4-((1-(3-(2,6-dioxopiperidin-3-yl)-1-methyl-1H-indazol-7-yl)piperidin-4-yl)methyl)-3-(hydroxymethyl)piperazin-1-yl)pyrimidin-4-yl)amino)-1-isopropyl-2-oxo-1,2-dihydro-1,8-naphthyridin-3-yl)oxy)-N-methylacetamide] are “++++ (Ymin < 30%)” and 10 to 100 nM.
`CNC(=O)COc1cc2cc(Nc3nc(N4CCC(Oc5ccc6c(C7CCC(=O)NC7=O)nn(C)c6c5)CC4)ncc3Cl)cnc2n(C)c1=O` (stereo not drawn) [Compound 147, 2-((6-((5-chloro-2-(4-((3-(2,6-dioxopiperidin-3-yl)-1-methyl-1H-indazol-6-yl)oxy)piperidin-1-yl)pyrimidin-4-yl)amino)-1-methyl-2-oxo-1,2-dihydro-1,8-naphthyridin-3-yl)oxy)-N-methylacetamide]: the “Ymin (5 hr)” value was “++++ (Ymin < 30%)” and the DC50 was under 10 nM.
On to `CNC(=O)COc1cc2cc(Nc3nc(N4CCC(Oc5cccc6c(C7CCC(=O)NC7=O)nn(C)c56)CC4)ncc3Cl)cnc2n(C)c1=O` (stereo not drawn) [Compound 148, 2-((6-((5-chloro-2-(4-((3-(2,6-dioxopiperidin-3-yl)-1-methyl-1H-indazol-7-yl)oxy)piperidin-1-yl)pyrimidin-4-yl)amino)-1-methyl-2-oxo-1,2-dihydro-1,8-naphthyridin-3-yl)oxy)-N-methylacetamide], for which the “Ymin (5 hr)” value was “+++ (30% ≤ Ymin < 50%)” and the DC50 is under 10 nM.
For `CNC(=O)COc1cc2cc(Nc3nc(N4CCN(CC5CCC6(CC5)CN(c5cccc7c(C8CCC(=O)NC8=O)nn(C)c57)C6)CC4)ncc3Cl)cnc2n(C)c1=O` (stereo not drawn) [Compound 149, 2-((6-((5-chloro-2-(4-((2-(3-(2,6-dioxopiperidin-3-yl)-1-methyl-1H-indazol-7-yl)-2-azaspiro[3.5]nonan-7-yl)methyl)piperazin-1-yl)pyrimidin-4-yl)amino)-1-methyl-2-oxo-1,2-dihydro-1,8-naphthyridin-3-yl)oxy)-N-methylacetamide], the “Ymin (5 hr)” value is reported as “+++ (30% ≤ Ymin < 50%)” and the DC50 is 10 to 100 nM.
On to `CNC(=O)COc1cc2cc(Nc3nc(N4CCN(CC5CCN(c6cccc7c(C8CCC(=O)NC8=O)nn(C)c67)CC5)CC4)ncc3Cl)cnc2n(C2CC2)c1=O` (stereo not drawn) [Compound 150, 2-((6-((5-chloro-2-(4-((1-(3-(2,6-dioxopiperidin-3-yl)-1-methyl-1H-indazol-7-yl)piperidin-4-yl)methyl)piperazin-1-yl)pyrimidin-4-yl)amino)-1-cyclopropyl-2-oxo-1,2-dihydro-1,8-naphthyridin-3-yl)oxy)-N-methylacetamide], for which the “Ymin (5 hr)” value was “++++ (Ymin < 30%)” and the DC50 was under 10 nM.
